Source: ChEMBL document CHEMBL4024745, “Causes and Significance of Increased Compound Potency in Cellular or Physiological Contexts” (J Med Chem, 2018)
One block for each compound: values may come before it.

Key:
[1] = Binding affinity to Escherichia coli MRE600 50S ribosome after 80 hrs by equilibrium dialysis method
[2] = Inhibition of coupled transcription-translation in Escherichia coli UC6782 […] using ortho-nitrophenyl-beta-galactoside as substrate after 30 mins by spectrophotometry
[3] = Binding affinity to Escherichia coli MRE600 50S ribosome after 10 mins by radioligand binding assay
Bacterial 70S ribosome = experiment: Binding affinity to Escherichia coli A19 70S ribosome after 30 mins by scintillation counting method
[4] = Binding affinity to Escherichia coli A19 50S ribosome after 30 mins by scintillation counting method
[5] = Drug metabolism in human MCF7 cells assessed as polyglutamylation of compound at 2 uM after 24 hrs by liquid scintillation counting method; assay type: ADME, cell-based; conditions: read-out: Drug metabolism
[6] = Drug metabolism in human MDA231 cells assessed as polyglutamylation of compound at 2 uM after 24 hrs by liquid scintillation counting method; assay type: ADME, cell-based; conditions: MDA231 (MDA-MB-231) cells, read-out: Drug metabolism
[7] = Drug metabolism in human ZR-75B cells assessed as polyglutamylation of compound at 2 uM after 24 hrs by liquid scintillation counting method; assay type: ADME, cell-based; conditions: read-out: Drug metabolism

SMILES: CCC[C@@H]1C[C@@H](C(=O)N[C@@H]([C@H]2O[C@H](SC)[C@H](O)[C@@H](O)[C@H]2O)[C@@H](C)O)N([14CH3])C1
Kd [1]: 34000 nM

IC50 [2]: 1800 nM
IC50 [3]: 20000 nM
SMILES: CC(=O)NC[C@H]1CN(c2ccc(N3CCN(C(=O)CO)CC3)c(F)c2)C(=O)O1 [EPEREZOLID]

SMILES: COC[C@H]1O[C@@H](O[C@@H]2OC[C@@H]3O[C@@]4(OC[C@@H](OC(=O)c5c(C)cc(O)cc5O)[C@@H]5OCO[C@H]54)O[C@H]3[C@H]2O)[C@@H](OC)[C@@H](O)[C@@H]1O[C@@H]1O[C@H](C)[C@H](OC)[C@H](O[C@@H]2O[C@H](C)[C@H]3O[C@]4(C[C@@H](O)[C@H](O[C@H]5C[C@@H](O[C@H]6C[C@](C)([N+](=O)[O-])[C@@H](OC)[C@H](C)O6)[C@H](OC(=O)c6c(C)c(Cl)c(O)c(Cl)c6OC)[C@@H](C)O5)[C@@H](C)O4)O[C@]3(C)[C@@H]2O)[C@H]1O [EVERNIMICIN]
Kd (Bacterial 70S ribosome): 84 nM
Kd [4]: 160 nM

metabolised at 24 h, 2 µM [5]: 55.4%
metabolised at 24 h, 2 µM [6]: 32%
metabolised at 24 h, 2 µM [7]: 87.6%
SMILES: CN(Cc1cnc2nc(N)nc(N)c2n1)c1ccc(C(=O)N[C@@H](CCC(=O)O)C(=O)O)cc1 [METHOTREXATE]
